Where two headings read alike, the source gives them in different places. Blank lines part the entries; values can stand above or below the molecule they belong to.
Tests used:
[1] = tested on: sterol biosynthesis in primary cultures of mouse liver cells; conditions: cited from earlier work; for inhibitory action on the synthesis of sterols (in words): primary cultures of mouse liver cells
plasma cholesterol = conditions: cited from earlier work
[2] = tested on: sterol biosynthesis in L cells; conditions: cited from earlier work; for inhibitory action on the synthesis of sterols (in words): L cells in culture
[3] = assay type: in vivo, rat (male, Sprague-Dawley)
Experimental: (§1) 3β-Hexadecanoyloxy-5α-cholest-8(14)-en-15-one (5 mg; dissolved in 0.25 ml of triolein), hereafter referred to as the "palmitate ester", or 3β-hemisuccinoyloxy-5α-cholest-8(14)-en-15-one (5 mg; suspended in 0.25 ml of triolein through the use of a tight-fitting all-glass homogenizer), hereafter referred to as the "hemisuccinate ester", were administered subcutaneously once a day at about 12 P.M. to each of eight and six rats, respectively. Control animals (8) received daily injections of triolein (0.25 ml).
The average percentage weight gain over the total experimental period in the palmitate, hemisuccinate, and triolein groups were (mean±S.E.M.) 40.5±4.6, 40.7±1.6, and 43.6±3.3, respectively.

[4] = tested on: sterol biosynthesis in L cells; assay: Inhibition of sterol synthesis from [1-14C]acetate in L cell cultures; assay type: cell-based; conditions: Mus musculus; L cell cultures; read-out: Concentrations Required for 50% Inhibition of Sterol Synthesis
Experimental: The effect of various 15-oxygenated sterols on sterol biosynthesis in L cells and in primary cultures of mouse liver cells was tested essentially under conditions described in detail previously [A. A. Kandutsch and H. W. Chen, J. Biol. Chem., Vol. 248, pp. 8408-8417 (1973) and A. A. Kandutsch and H. W. Chen, J. Biol. Chem., Vol. 249, pp. 6057-6061 (1974`)].
(§2) The primary liver cell cultures were prepared from 16-day-old (C57BL/6J fetuses and grown in chemically defined medium (serum-free) as described in the above cited publications. The L cells, a subline of NCTC clone 929 mouse fibroblasts, were grown in chemically defined medium (serum-free) as described in the publications. These L cells are transformed fibroblasts which are regarded as malignant since they will grow as tumors if injected into the mouse strain from which they were initially obtained.
(§3) The preparation of steroid-containing media, procedures for assays of the conversion of [1-^14 C]acetate into digitonin-precipitable sterols, fatty acids, and CO2 and methods for the measurement of DNA, protein, and HMG-CoA reductase were as described in the published articles. L cell cultures were preincubated with the 15-oxygenated sterols and their derivatives for 4 hours, then [1-^14 C]acetate was added at a concentration of 4 μmoles per ml (4 μCi per ml); or the L cell cultures were incubated for 5 hours with the 15-oxygenated sterols before they were harvested for determination of microsomal HMG-CoA reductase activity.
The test compounds were tested over a range of at least 4 concentrations and the assay was repeated until the concentration of test compound required to produce 50% inhibition was located on the steeply declining portion of an activity vs. concentration plot. To diminish any possible effects of generalized differences in cellular metabolism, the rates of sterol synthesis from [1-^14 C]acetate were calculated as the ratio of [^14 C]sterols to [^14 C]fatty acids as described in the two cited articles by Kandutsch and Chen.

liver = assay type: in vivo, rat (male, Sprague-Dawley); conditions: 5 mg s.c. once a day
Experimental: as §1
The mean values of the liver weights of the triolein-treated rats (9.6 g±0.08, S.E.M.). S.E. differed from those of the palmitate ester-treated rats (11.4 g±0.5, S.E.M.). Similarly, the mean value of the liver weights, when expressed as a percentage of the total body weight, of the triolein-treated rats (4.09%±0.08, S.E.M.) differed from the mean value for the palmitate ester-treated rats (4.53%±0.09, S.E.M.).

serum cholesterol = assay: Effect on serum cholesterol levels in rats, daily subcutaneous injection (Examples 41, 42); assay type: in vivo, rat (male, Sprague-Dawley); conditions: for Serum Cholesterol (Mean ± S.E.M.): 5 mg s.c. once a day in triolein; for % Reduction of serum cholesterol (Mean ± S.E.M.): from initial levels in same rats
Experimental: Male rats of the Sprague-Dawley strain were fed Purina rat chow ad libidum. The rats were maintained on a light (7 A.M.-6 P.M.) -dark (6 P.M.-7 A.M.) cycle throughout the study and for a period of at least 4 days prior to the initiation of the study.
as §1
Blood samples were taken from the rats periodically and the serum cholesterol concentrations measured, in duplicate, by the method of Abell et al., J. Biol. Chem., Vol. 195, pp. 357-366 ([…]).
Following generally the procedure described in Example 41, 3β-Ethoxy-14α-ethyl-5α-cholest-7-en-15-one (5 mg) in triolein (0.25 ml) was administered subcutaneously once a day to each of eight rats. Control animals (8) received daily injections of triolein (0.25 ml).
Similarly, 5α-cholest-8(14)-en-3β-ol-15-one (2mg) in (0.2 ml) olive oil or 5.0 mg in 0.5 ml of olive oil) was administered subcutaneously once a day to each of a group of rats. The 2 mg dose was administered to 12 rats, while a like number of rats received daily injections of 0.2 ml olive oil. 5 mg doses were administered to each of 6 rats, while 6 control animals received daily injections of 0.5 ml olive oil. The rats used in this study initially weighed between 110 and 190 grams.

HMG-CoA reductase = assay: Reduction of the activity of HMG-CoA reductase in L cell cultures; assay type: cell-based, mouse; conditions: read-out: Concentrations Required for 50% Reduction of the Activity of HMG-CoA Reductase
Experimental: as §2, §3
A number of the 15-oxygenated sterols have also been tested with respect to their effects on the activity and/or levels of the enzyme HMG-CoA reductase (3-hydroxy-3-methylglutaryl coenzyme A reductase) in the L cells and in the liver cells. As noted previously, this enzyme catalyzes the reduction of 3-hydroxy-3-methylglutaryl coenzyme A to yield mevalonic acid, an essential intermediate in the biosynthesis of sterols and of a number of other essential compounds in cells.
Using the technique described by Kandutsch and Chen in the article cited in the previous example, the concentrations of various 15-oxygenated sterols required to reduce the levels of activity of HMG-CoA reductase by 50% was determined in the cells of the L cells in culture and of the primary cultures of liver cells.

SMILES: C[C@H](CCCC(C)(C)O)[C@H]1CC[C@H]2[C@@H]3CC=C4C[C@@H](O)CC[C@]4(C)[C@H]3CC[C@]12C [Cholest-5-en-3β,25-diol]
IC50 ([1]; liver cells, read-out: lowest previously reported concentration for 50% inhibition of sterol synthesis): 1 µM | IC50 ([1]; primary cultures of liver cells, as reported by Kandutsch and Chen, read-out: Concentrations Required for 50% Inhibition of Sterol Synthesis): 1 µM | inhibitory action on the synthesis of sterols (in words) [1]: strong inhibitory action | plasma cholesterol-lowering effect in mice (in words) (plasma cholesterol): no significant plasma cholesterol-lowering effect in mice | IC50 ([2]; L cell cultures, as reported by Kandutsch and Chen, read-out: Concentrations Required for 50% Inhibition of Sterol Synthesis): 0.07 µM | inhibitory action on the synthesis of sterols (in words) [2]: strong inhibitory action

average percentage weight gain (mean±S.E.M.) ([3]; 5 mg s.c. once a day, total experimental period): 40.7±1.6% | differences in growth versus vehicle-treated rats (in words) ([3]; daily s.c.): no significant differences in the growth | IC50 [4]: 3.2 µM | difference of liver weights from triolein-treated rats (in words) (liver): no significant difference | liver weight (mean, S.E.M.) (liver): 10.6 g | IC50 (HMG-CoA reductase): 3 µM
SMILES: CC(C)CCC[C@@H](C)[C@H]1CC(=O)C2=C3CC[C@H]4C[C@@H](OC(=O)CCC(=O)O)CC[C@]4(C)[C@H]3CC[C@@]21C [3β-hemisuccinoyloxy-5α-cholest-8(14)-en-15-one]
liver weight as percentage of total body weight (mean, S.E.M.) (liver): 4.36% | Serum Cholesterol (Mean ± S.E.M.) (serum cholesterol; day 0 (initial)): 89.1 ± 2.6 mg per 100 ml | Serum Cholesterol (Mean ± S.E.M.) (serum cholesterol; day 3): 78.6 ± 2.4 mg per 100 ml | Serum Cholesterol (Mean ± S.E.M.) (serum cholesterol; day 6): 72.5 ± 1.9 mg per 100 ml | Serum Cholesterol (Mean ± S.E.M.) (serum cholesterol; day 9): 72.3 ± 1.6 mg per 100 ml | Serum Cholesterol (Mean ± S.E.M.) (serum cholesterol; day 12): 58.8 ± 2.8 mg per 100 ml | decrease in serum cholesterol levels (in words) (serum cholesterol; 5 mg s.c. once a day, after 3, 6, 9, 12 days vs same rats before, after 12 days vs triolein): significant decreases in serum cholesterol levels | % Reduction of serum cholesterol (Mean ± S.E.M.) (serum cholesterol; 5 mg s.c. once a day, day 3): 13.5 ± 4.4% | % Reduction of serum cholesterol (Mean ± S.E.M.) (serum cholesterol; 5 mg s.c. once a day, day 6): 18.1 ± 4.1% | % Reduction of serum cholesterol (Mean ± S.E.M.) (serum cholesterol; 5 mg s.c. once a day, day 9): 18.4 ± 3.5% | % Reduction of serum cholesterol (Mean ± S.E.M.) (serum cholesterol; 5 mg s.c. once a day, day 12): 33.9 ± 2.9%

SMILES: CC(C)CCC[C@@H](C)[C@H]1CC[C@H]2[C@@H]3C(=O)C=C4C[C@@H](O)CC[C@]4(C)[C@H]3CC[C@]12C [7-ketocholesterol]
inhibitory action on the synthesis of sterols (in words) [1]: strong inhibitory action | plasma cholesterol-lowering effect in mice (in words) (plasma cholesterol): no significant plasma cholesterol-lowering effect in mice | inhibitory action on the synthesis of sterols (in words) [2]: strong inhibitory action
